Measurements reported in patent US9198906B2, “Ketoconazole enantiomer in humans” (Cortendo AB (publ), priority 2006, dated 2015).

Legend:
[1] = plasma; Beagle dogs, racemic ketoconazole 30 mg/dog intravenous bolus
Protocol: The pharmacokinetics of each of the ketoconazole enantiomers was studied following intravenous administration of racemic ketoconazole. Racemic ketoconazolewas dissolved in ethanol to 60 mg/ml. Each of three Beagle dogs was administered 0.5 ml bolus (30 mg/dog) intravenously.
Blood was collected from each dog prior to dosing (“0 min”) and at 2, 5, 10, 15, 30 min, and 1, 2, 4, 6, 8, and 24 hrs post-dosing. At each timepoint, blood (0.3 mL/sample) was collected and placed into labeled Microtainer® tubes with heparin as the anti-coagulant. The heparinized blood was centrifuged, and the supernatant pipetted off into another set of labeled Eppendorf® tubes. The derived plasma samples were analyzed for each of the two ketoconazole enantiomers (2S,4R and 2R,4S) and pharmacokinetic parameters determined for each of the enantiomers.

[2] = system: patients with type 2 diabetes mellitus; assay: Phase 2a trial, HbA1c (glycemic control); format: in vivo, human; details: for Visit 1 HbA1c mean: Visit 1 (Day 1, before first dose, baseline); for HbA1c Change vs Baseline mean / Visit 3 HbA1c mean: 14 daily doses; for Visit 3 HbA1c mean: Visit 3 (Day 15)
Protocol: (§1) Five (5) dose groups were studied.
(§2) The first dose of the study drug was given on Day 1 at 2200 h. Activity markers measured on Day 1 prior to administration of the drug (“Visit 1”). The last dose of study drug was given on Day 14 at 2200 h and activity markers measured on Day 15 (“Visit 3”). Measurements of safety markers were taken on Visits 1 and 3, as well as Visit 2 (Day 8) and Visit 4 (Day 28).
This test measure levels of glycated hemoglobin and reflects the average blood glucose level for a subject over the preceding 3 months (approximately). Elevated levels are common in diabetics. Lowering the hemoglobin A1c number can delay or prevent the development of serious eye, kidney, and nerve disease in individuals with diabetes.

[3] = system: patients with type 2 diabetes mellitus; assay: Phase 2a trial, total cholesterol; format: in vivo, human; details: for Total cholesterol Visit 1 mean: Visit 1 (baseline, before first dose); for Total cholesterol Change mean / Total cholesterol Mean % change / Total cholesterol Visit 3 mean: 14 daily doses; for Total cholesterol Visit 3 mean: Visit 3 (Day 15)
Protocol: as §1, §2

[4] = system: patients with type 2 diabetes mellitus; assay: Phase 2a trial, fructosamine (glycemic control); format: in vivo, human; details: for Fructosamine Visit 1 mean: Visit 1 (baseline, before first dose); for Fructosamine Change vs Baseline mean / Fructosamine Visit 3 mean: 14 daily doses; for Fructosamine Visit 3 mean: Visit 3 (Day 15)
Protocol: as §1, §2
Fructosamine levels were measured at baseline and after two weeks of therapy (see Table 4 and FIGS. 1 and 2). […] Fructosamine levels reflect blood glucose levels over the preceding 2-3 weeks.

[5] = system: patients with type 2 diabetes mellitus; assay: Phase 2a trial, fasting glucose; details: two weeks of treatment
Text: The secondary objective was to determine the pharmacokinetic (PK) profile in plasma of the 2S,4R enantiomer after a single dosing and after fourteen daily doses. In addition the pharmacodynamic activity of fourteen daily doses of the 2S,4R enantiomer, as reflected by changes in blood pressure, total and LDL cholesterol, CRP, plasma and salivary cortisol, cortisol binding globulin, measures of glycemic control (fructosamine, HbA1c and fasting blood glucose levels).
Five (5) dose groups were studied. The dose groups are as follows (N=subjects who completed the study):

[6] = system: patients with type 2 diabetes mellitus; assay: Phase 2a trial, liver function tests (AST/ALT/AP)
Protocol: as §2

[7] = system: patients with type 2 diabetes mellitus; assay: Phase 2a trial, continuous blood pressure monitoring; format: in vivo, human; details: Visits 1 and 3, 14 daily doses
Protocol: as §1
Continuous blood pressure monitoring was performed during Visits 1 and 3.

[8] = system: patients with type 2 diabetes mellitus; assay: Phase 2a trial, LDL cholesterol; format: in vivo, human; details: for LDL cholesterol Visit 1 mean: Visit 1 (baseline, before first dose); for LDL cholesterol Mean % change / LDL cholesterol change mean / LDL cholesterol Visit 3 mean: 14 daily doses; for LDL cholesterol Visit 3 mean: Visit 3 (Day 15)
Protocol: as §1, §2

[9] = system: patients with type 2 diabetes mellitus; assay: Phase 2a trial, C-reactive protein (marker of inflammation); format: in vivo, human; details: for C-Reactive Protein (CRP) Visit 1 mean: Visit 1 (baseline, before first dose); for C-Reactive Protein (CRP) Visit 3 mean: Visit 3 (Day 15)
Protocol: as §1, §2

[10] = target: T1, 14a-lanosterol demethylase (Rattus norvegicus, UniProt Q64654); details: compared with the other (2R,4S) enantiomer; Rotstein et al. 1992; cited from earlier work
T1 sequence (Q64654 1-503): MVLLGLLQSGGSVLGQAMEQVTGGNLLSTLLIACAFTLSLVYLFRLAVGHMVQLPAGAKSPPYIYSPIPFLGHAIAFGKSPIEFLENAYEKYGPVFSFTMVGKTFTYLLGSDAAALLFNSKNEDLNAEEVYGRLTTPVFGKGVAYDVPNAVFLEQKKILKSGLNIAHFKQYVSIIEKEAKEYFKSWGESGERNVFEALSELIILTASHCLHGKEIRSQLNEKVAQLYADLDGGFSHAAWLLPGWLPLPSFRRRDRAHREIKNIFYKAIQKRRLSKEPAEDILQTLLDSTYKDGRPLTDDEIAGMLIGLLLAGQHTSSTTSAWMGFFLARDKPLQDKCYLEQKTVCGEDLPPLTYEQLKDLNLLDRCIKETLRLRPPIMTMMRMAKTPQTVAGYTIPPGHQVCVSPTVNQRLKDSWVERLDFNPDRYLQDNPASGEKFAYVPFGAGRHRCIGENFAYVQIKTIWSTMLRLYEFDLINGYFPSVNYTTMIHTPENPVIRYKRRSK

[11] = Subject 02-002, 200 mg DIO-902, Screening Visit
[12] = Subject 02-002, 200 mg DIO-902, Visit 1 (pre-1st dose)
[13] = Subject 02-002, 200 mg DIO-902, Visit 2
[14] = Subject 02-002, 200 mg DIO-902, Visit 3 (last dose)
[15] = Subject 04-004, 400 mg DIO-902, Screening Visit
[16] = Subject 04-004, 400 mg DIO-902, Visit 1 (pre-1st dose)
[17] = Subject 04-004, 400 mg DIO-902, Visit 2
[18] = Subject 04-004, 400 mg DIO-902, Visit 3 (last dose)
[19] = Subject 04-010, 400 mg DIO-902, Screening Visit
[20] = Subject 04-010, 400 mg DIO-902, Visit 1 (pre-1st dose)
[21] = Subject 04-010, 400 mg DIO-902, Visit 2
[22] = Subject 04-010, 400 mg DIO-902, Visit 3 (last dose)

Compound: CC(=O)N1CCN(c2ccc(OC[C@H]3CO[C@](Cn4ccnc4)(c4ccc(Cl)cc4Cl)O3)cc2)CC1 (single isomer, unassigned) [2R,4S ketoconazole enantiomer, reference compound]
- clearance [1]: 24.03 mL/min/kg
- terminal half life [1]: 0.93 h

Compound: 2S,4R ketoconazole [DIO-902]
- Visit 1 HbA1c mean ([2]; 200 mg po QD group): 8.18%
- HbA1c Change vs Baseline mean ([2]; 200 mg po QD): −0.32%
- Visit 3 HbA1c mean ([2]; 200 mg po QD): 7.86%
- Visit 1 HbA1c mean ([2]; 400 mg po QD group): 7.88%
- HbA1c Change vs Baseline mean ([2]; 400 mg po QD): −0.18%
- Visit 3 HbA1c mean ([2]; 400 mg po QD): 7.70%
- Visit 1 HbA1c mean ([2]; 600 mg po QD group): 9.10%
- HbA1c Change vs Baseline mean ([2]; 600 mg po QD): −0.47%
- Visit 3 HbA1c mean ([2]; 600 mg po QD): 8.63%
- effect on HbA1c ([2]; administration for 14 days): trends toward a reduction
- clearance [1]: 8.08 mL/min/kg
- terminal half life [1]: 1.397 h
- Total cholesterol Visit 1 mean ([3]; 200 mg po QD group): 227.20 mg/dL
- Total cholesterol Change mean ([3]; 200 mg po QD): -26.10 mg/dL
- Total cholesterol Mean % change ([3]; 200 mg po QD): −11.66%
- Total cholesterol Visit 3 mean ([3]; 200 mg po QD): 202.45 mg/dL
- Total cholesterol Visit 1 mean ([3]; 400 mg po QD group): 224.50 mg/dL
- Total cholesterol Change mean ([3]; 400 mg po QD): -34.00 mg/dL
- Total cholesterol Mean % change ([3]; 400 mg po QD): −15.35%
- Total cholesterol Visit 3 mean ([3]; 400 mg po QD): 190.50 mg/dL
- Total cholesterol Visit 1 mean ([3]; 600 mg po QD group): 195.33 mg/dL
- Total cholesterol Change mean ([3]; 600 mg po QD): -48.75 mg/dL
- Total cholesterol Mean % change ([3]; 600 mg po QD): −29.97%
- Total cholesterol Visit 3 mean ([3]; 600 mg po QD): 130.33 mg/dL
- effect on total cholesterol ([3]; two-week administration): Statistically significant, dose dependent decreases
- Fructosamine Visit 1 mean ([4]; 200 mg po QD group): 262 µmol/L
- Fructosamine Change vs Baseline mean ([4]; 200 mg po QD): -12.20 µmol/L
- Fructosamine Visit 3 mean ([4]; 200 mg po QD): 249.80 µmol/L
- Fructosamine Visit 1 mean ([4]; 400 mg po QD group): 271.00 µmol/L
- Fructosamine Change vs Baseline mean ([4]; 400 mg po QD): -8.33 µmol/L
- Fructosamine Visit 3 mean ([4]; 400 mg po QD): 262.67 µmol/L
- Fructosamine Visit 1 mean ([4]; 600 mg po QD group): 276.33 µmol/L
- Fructosamine Change vs Baseline mean ([4]; 600 mg po QD): -29.33 µmol/L
- Fructosamine Visit 3 mean ([4]; 600 mg po QD): 247.00 µmol/L
- effect on fructosamine ([4]; administration for 14 days): trends toward a reduction
- Reductions in fasting glucose levels [5]: up to 15 mg/dL
- evidence of hepatotoxicity ([6]; 14 daily doses): not observed
- ALT [6, 11]: 30 u/L
- AP [6, 11]: 110 u/L
- AST [6, 11]: 58 u/L
- ALT [6, 12]: 22 u/L
- AP [6, 12]: 100 u/L
- AST [6, 12]: 34 u/L
- ALT [6, 13]: 21 u/L
- AP [6, 13]: 103 u/L
- AST [6, 13]: 30 u/L
- ALT [6, 14]: 19 u/L
- AP [6, 14]: 97 u/L
- AST [6, 14]: 35 u/L
- ALT [6, 15]: 25 u/L
- AP [6, 15]: 132 u/L
- AST [6, 15]: 48 u/L
- ALT [6, 16]: 25 u/L
- AP [6, 16]: 108 u/L
- AST [6, 16]: 49 u/L
- ALT [6, 17]: 28 u/L
- AP [6, 17]: 125 u/L
- AST [6, 17]: 49 u/L
- ALT [6, 18]: 25 u/L
- AP [6, 18]: 130 u/L
- AST [6, 18]: 46 u/L
- ALT [6, 19]: 27 u/L
- AP [6, 19]: 73 u/L
- AST [6, 19]: 49 u/L
- ALT [6, 20]: 24 u/L
- AP [6, 20]: 60 u/L
- AST [6, 20]: 48 u/L
- ALT [6, 21]: 14 u/L
- AP [6, 21]: 82 u/L
- AST [6, 21]: 40 u/L
- ALT [6, 22]: 19 u/L
- AP [6, 22]: 64 u/L
- AST [6, 22]: 38 u/L
- liver function test values outside the normal range at baseline (hepato-protection, words) ([6]; two patients): normalized
- effect on blood pressure readings [7]: no reductions
- LDL cholesterol Visit 1 mean ([8]; 200 mg po QD group): 141.60 mg/dL
- LDL cholesterol Mean % change ([8]; 200 mg po QD): −11.39%
- LDL cholesterol change mean ([8]; 200 mg po QD): -17.20 mg/dL
- LDL cholesterol Visit 3 mean ([8]; 200 mg po QD): 124.40 mg/dL
- LDL cholesterol Visit 1 mean ([8]; 400 mg po QD group): 133.33 mg/dL
- LDL cholesterol Mean % change ([8]; 400 mg po QD): −27.44%
- LDL cholesterol change mean ([8]; 400 mg po QD): -35.50 mg/dL
- LDL cholesterol Visit 3 mean ([8]; 400 mg po QD): 97.83 mg/dL
- LDL cholesterol Visit 1 mean ([8]; 600 mg po QD group): 125.67 mg/dL
- LDL cholesterol Mean % change ([8]; 600 mg po QD): −42.14%
- LDL cholesterol change mean ([8]; 600 mg po QD): -41.25 mg/dL
- LDL cholesterol Visit 3 mean ([8]; 600 mg po QD): 70.67 mg/dL
- effect on LDL-C ([8]; two-week administration): Statistically significant, dose dependent decreases
- C-Reactive Protein (CRP) Visit 1 mean ([9]; 200 mg po QD group): 6.91 mg/L
- CRP Mean % change vs baseline ([9]; 200 mg po QD, 14 daily doses): −19.8%
- C-Reactive Protein (CRP) Visit 3 mean ([9]; 200 mg po QD, 14 daily doses): 4.78 mg/L
- C-Reactive Protein (CRP) Visit 1 mean ([9]; 400 mg po QD group): 4.02 mg/L
- CRP Mean % change vs baseline ([9]; 400 mg po QD, 14 daily doses): −27.35%
- C-Reactive Protein (CRP) Visit 3 mean ([9]; 400 mg po QD, 14 daily doses): 2.95 mg/L
- C-Reactive Protein (CRP) Visit 1 mean ([9]; 600 mg po QD group): 8.35 mg/L
- CRP Mean % change vs baseline ([9]; 600 mg po QD, 14 daily doses): −48.64%
- C-Reactive Protein (CRP) Visit 3 mean ([9]; 600 mg po QD, 14 daily doses): 5.05 mg/L
- effect on CRP ([9]; 14 daily doses): dose-dependent decrease
- activity against 14a-lanosterol demethylase [10]: more active
